Measured values as given in ChEMBL document CHEMBL2073819, “Enhanced exposure of phosphatidylserine in human gastric carcinoma cells overexpressing the half-size ABC transporter BCRP (ABCG2)” (Biochem J, 2003).

Assays:
Type in all cases: functional, cell-based
[1] = biological target: T1, Broad substrate specificity ATP-binding cassette transporter ABCG2 (Homo sapiens, UniProt Q9UNQ0); assay: TP_TRANSPORTER: efflux in BCRP-expressing EPG85-257 cells
T1 sequence (Q9UNQ0 whole entry): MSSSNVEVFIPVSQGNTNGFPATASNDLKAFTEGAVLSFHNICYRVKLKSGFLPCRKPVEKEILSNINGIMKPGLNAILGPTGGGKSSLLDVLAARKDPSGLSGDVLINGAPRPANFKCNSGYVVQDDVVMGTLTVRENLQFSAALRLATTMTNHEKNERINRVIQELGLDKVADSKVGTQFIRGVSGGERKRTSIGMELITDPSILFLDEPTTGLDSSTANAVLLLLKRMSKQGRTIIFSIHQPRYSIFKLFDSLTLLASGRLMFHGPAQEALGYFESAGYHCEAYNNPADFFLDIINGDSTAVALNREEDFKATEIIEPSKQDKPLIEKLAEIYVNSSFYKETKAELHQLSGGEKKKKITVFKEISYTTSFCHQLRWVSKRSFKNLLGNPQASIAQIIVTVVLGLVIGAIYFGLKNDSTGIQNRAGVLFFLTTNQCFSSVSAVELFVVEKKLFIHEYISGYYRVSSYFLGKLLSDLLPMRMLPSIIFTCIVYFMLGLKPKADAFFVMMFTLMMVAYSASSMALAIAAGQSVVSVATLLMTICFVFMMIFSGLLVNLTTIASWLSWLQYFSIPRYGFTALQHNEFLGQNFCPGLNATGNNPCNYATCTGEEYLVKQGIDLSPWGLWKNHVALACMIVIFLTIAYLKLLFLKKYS

[2] = biological target: T2, ATP-dependent translocase ABCB1 (Homo sapiens, UniProt P08183); assay: TP_TRANSPORTER: efflux in MDR1-expressing EPG85-257 cells
[3] = biological target: T1, Broad substrate specificity ATP-binding cassette transporter ABCG2; assay: TP_TRANSPORTER: inhibition of C6-NBD-PS efflux in BCRP-expressing EPG85-257 cells
[4] = biological target: T2, ATP-dependent translocase ABCB1; assay: TP_TRANSPORTER: inhibition of C6-NBD-PS efflux in MDR1-expressing EPG85-257 cells

T2 sequence (P08183 whole entry): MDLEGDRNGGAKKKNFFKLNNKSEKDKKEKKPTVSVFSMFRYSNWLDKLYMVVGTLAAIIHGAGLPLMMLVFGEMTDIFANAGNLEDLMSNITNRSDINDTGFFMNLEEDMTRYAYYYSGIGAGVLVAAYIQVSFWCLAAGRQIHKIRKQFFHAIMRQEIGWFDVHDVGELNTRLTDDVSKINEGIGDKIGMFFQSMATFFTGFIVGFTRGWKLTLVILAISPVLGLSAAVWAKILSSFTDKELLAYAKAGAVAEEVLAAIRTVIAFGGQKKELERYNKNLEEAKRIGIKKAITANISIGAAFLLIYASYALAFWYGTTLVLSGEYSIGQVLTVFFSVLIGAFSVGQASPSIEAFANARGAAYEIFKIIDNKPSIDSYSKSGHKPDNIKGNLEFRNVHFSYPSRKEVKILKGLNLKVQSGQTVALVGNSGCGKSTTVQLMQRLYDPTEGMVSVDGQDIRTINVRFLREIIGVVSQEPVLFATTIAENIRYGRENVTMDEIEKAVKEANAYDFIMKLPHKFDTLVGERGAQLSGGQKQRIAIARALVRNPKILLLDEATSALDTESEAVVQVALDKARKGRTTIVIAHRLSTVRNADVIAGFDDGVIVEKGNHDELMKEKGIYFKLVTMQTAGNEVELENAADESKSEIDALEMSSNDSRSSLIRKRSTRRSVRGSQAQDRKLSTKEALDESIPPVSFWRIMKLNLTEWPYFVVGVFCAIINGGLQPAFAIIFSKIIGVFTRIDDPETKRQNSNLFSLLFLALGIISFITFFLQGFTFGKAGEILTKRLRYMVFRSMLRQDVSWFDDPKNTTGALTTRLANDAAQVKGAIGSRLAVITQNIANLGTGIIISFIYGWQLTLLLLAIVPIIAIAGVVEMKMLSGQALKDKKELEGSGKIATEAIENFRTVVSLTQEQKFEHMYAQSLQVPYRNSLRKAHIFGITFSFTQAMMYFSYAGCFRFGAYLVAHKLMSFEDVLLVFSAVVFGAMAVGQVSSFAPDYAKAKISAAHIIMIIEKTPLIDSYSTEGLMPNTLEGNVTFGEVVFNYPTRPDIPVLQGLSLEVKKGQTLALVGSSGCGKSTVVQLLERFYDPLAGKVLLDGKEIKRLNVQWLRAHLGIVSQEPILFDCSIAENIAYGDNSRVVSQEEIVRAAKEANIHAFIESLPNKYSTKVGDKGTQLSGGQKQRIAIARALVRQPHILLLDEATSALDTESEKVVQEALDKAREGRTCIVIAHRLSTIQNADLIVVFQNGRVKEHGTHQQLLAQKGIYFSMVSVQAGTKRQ

Activity [2]	SMILES	Activity [1]	Activity [3]	Activity [4]
	CCCCCCCCCCCCCCCC(=O)OCC(COP(=O)([O-])OCC[N+](C)(C)C)OC(=O)CCCCCNc1ccc([N+](=O)[O-])c2nonc12 (stereo unspecified)	substrate []		
substrate []	CCCCCCCC/C=C\CCCCCCCC(=O)OC(COC(=O)CCCCCCC/C=C/CCCCCCCC)COP(=O)(O)OC[C@H](Nc1ccc([N+](=O)[O-])c2nonc12)C(=O)O (stereo partly specified)	substrate []		
	COc1cc2c(cc1OC)CN(CCc1ccc(NC(=O)c3cccc4c(=O)c5cccc(OC)c5[nH]c34)cc1)CC2.Cl [ELACRIDAR HYDROCHLORIDE]		inhibitor []	
	COc1ccc2c(C[C@@H]3NC(=O)[C@@H]4CCCN4C3=O)c(CC=C(C)C)[nH]c2c1 [TRYPROSTATIN A]		inhibitor []	inhibitor []
